The values that follow come from ChEMBL document CHEMBL3751677, “Cardanol-derived AChE inhibitors: Towards the development of dual binding derivatives for Alzheimer's disease” (Eur J Med Chem, 2016).

Molecules are shown by their SMILES. Calls of active or inactive are those of the source. The calls are words filed in the database; no cut-off is given here.

The target in series [1] is T1, Acetylcholinesterase (Electrophorus electricus, UniProt O42275). Put plainly: Non-competitive inhibition of electric eel acetylcholine esterase using […] as substrate by Ellman's method. On the technique in general: In Ellman's method for cholinesterases, released thiocholine reacts with DTNB.
In series [2] the test system is HT-29. Put plainly: Cytotoxicity against human HT-29 cells at 10 uM by LDH release assay. Format: cell-based. Conditions: ht-29, 10 µM.
The target of series [3] is T1, Acetylcholinesterase. Put plainly: Inhibition of electric eel acetylcholine esterase preincubated for 10 mins followed by the addition of […] as substrate measured after 5 mins by Ellman's method.
For series [4], the target named is Cholinesterase (Equus caballus, UniProt P81908). Put plainly: Inhibition of horse butyrylcholine esterase preincubated for 10 mins followed by the addition of […] as substrate measured after 5 mins by Ellman's method.
Series [5] is described as follows: Selectivity index, ratio of IC50 for horse butyrylcholine esterase to IC50 for electric eel acetylcholine esterase.
Series [6] concerns the target Amyloid-beta precursor protein (Homo sapiens) (UniProt P05067). Put plainly: Inhibition of Amyloid beta42 (unknown origin) self aggregation assessed as Abeta fibril formation at 50 uM for 24 hrs by ThT-based fluorometric assay.
Series [7] deals with HT-29. The series is described as follows: Cytotoxicity against human HT-29 cells assessed as LDH release at 100 uM after 24 hrs. Conditions: ht-29, 24 h. Format: cell-based.
Series [8] deals with HT-29. The series is described as follows: Cytotoxicity against human HT-29 cells at 10 times IC50 by LDH release assay. The series is classed as cell-based.
The target in series [9] is Acetylcholinesterase (Homo sapiens, UniProt P22303).
Description: Inhibition of human acetylcholine esterase preincubated for 10 mins followed by the addition of 550 uM of acetylcholine iodide as substrate measured after 20 mins by Ellman's method
A short description of series [10]: Cytotoxicity against human HT-29 cells assessed as decrease in cell viability after 24 hrs by calcein-AM/propidium iodide based fluorescence analysis. Particulars: read-out: INH.
Series [11] has as its target T1, Acetylcholinesterase. Put plainly: Mixed inhibition of electric eel acetylcholine esterase using […] as substrate by Ellman's method.

T1 sequence (O42275 whole entry): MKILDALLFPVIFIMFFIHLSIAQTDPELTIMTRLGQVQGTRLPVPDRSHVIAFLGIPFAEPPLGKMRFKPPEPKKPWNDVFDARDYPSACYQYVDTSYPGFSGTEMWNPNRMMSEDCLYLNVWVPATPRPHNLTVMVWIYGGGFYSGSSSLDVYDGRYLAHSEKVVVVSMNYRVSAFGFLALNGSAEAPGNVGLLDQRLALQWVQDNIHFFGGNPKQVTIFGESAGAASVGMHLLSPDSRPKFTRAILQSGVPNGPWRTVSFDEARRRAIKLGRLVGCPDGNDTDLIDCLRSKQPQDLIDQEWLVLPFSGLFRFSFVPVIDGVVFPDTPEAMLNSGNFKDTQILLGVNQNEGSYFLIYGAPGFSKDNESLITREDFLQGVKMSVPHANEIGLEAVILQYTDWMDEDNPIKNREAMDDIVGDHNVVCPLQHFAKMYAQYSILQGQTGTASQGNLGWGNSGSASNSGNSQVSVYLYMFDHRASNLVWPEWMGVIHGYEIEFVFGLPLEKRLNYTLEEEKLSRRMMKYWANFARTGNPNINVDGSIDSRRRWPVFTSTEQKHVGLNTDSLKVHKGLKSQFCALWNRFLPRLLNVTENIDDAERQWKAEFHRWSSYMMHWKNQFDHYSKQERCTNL
Cholinesterase, sequence (P81908 whole entry): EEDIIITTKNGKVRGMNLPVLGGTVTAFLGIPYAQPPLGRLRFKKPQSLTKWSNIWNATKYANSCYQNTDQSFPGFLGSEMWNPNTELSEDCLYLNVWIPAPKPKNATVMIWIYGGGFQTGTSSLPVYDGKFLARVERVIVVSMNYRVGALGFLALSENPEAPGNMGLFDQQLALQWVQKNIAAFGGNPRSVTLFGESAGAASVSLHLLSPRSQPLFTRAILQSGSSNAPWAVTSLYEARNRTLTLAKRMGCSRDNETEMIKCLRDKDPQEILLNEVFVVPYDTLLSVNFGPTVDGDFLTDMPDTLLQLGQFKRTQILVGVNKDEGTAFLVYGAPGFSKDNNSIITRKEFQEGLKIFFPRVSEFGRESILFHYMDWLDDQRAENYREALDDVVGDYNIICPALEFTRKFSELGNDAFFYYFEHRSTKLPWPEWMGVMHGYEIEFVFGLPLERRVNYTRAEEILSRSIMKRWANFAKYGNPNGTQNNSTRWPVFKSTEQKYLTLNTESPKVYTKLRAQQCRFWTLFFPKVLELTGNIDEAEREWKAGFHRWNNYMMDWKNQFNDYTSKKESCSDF
Acetylcholinesterase (Homo sapiens, UniProt P22303), sequence (P22303 whole entry): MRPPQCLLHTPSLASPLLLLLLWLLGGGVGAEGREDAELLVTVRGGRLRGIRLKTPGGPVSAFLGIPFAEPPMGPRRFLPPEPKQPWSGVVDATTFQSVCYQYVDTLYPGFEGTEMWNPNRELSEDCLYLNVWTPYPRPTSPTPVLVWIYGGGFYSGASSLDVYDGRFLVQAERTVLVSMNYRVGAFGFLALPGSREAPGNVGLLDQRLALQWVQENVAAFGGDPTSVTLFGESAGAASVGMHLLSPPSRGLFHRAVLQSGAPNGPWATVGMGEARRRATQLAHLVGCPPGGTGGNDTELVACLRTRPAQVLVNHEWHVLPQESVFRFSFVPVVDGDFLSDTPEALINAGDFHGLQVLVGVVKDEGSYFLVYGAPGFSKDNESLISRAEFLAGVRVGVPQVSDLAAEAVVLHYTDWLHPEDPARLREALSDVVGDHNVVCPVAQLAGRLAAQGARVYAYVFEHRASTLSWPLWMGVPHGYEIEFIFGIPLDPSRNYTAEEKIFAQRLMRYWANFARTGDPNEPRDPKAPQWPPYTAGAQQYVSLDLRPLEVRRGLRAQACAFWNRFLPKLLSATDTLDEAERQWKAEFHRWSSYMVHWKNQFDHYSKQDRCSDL
Amyloid-beta precursor protein (Homo sapiens), sequence (P05067 whole entry): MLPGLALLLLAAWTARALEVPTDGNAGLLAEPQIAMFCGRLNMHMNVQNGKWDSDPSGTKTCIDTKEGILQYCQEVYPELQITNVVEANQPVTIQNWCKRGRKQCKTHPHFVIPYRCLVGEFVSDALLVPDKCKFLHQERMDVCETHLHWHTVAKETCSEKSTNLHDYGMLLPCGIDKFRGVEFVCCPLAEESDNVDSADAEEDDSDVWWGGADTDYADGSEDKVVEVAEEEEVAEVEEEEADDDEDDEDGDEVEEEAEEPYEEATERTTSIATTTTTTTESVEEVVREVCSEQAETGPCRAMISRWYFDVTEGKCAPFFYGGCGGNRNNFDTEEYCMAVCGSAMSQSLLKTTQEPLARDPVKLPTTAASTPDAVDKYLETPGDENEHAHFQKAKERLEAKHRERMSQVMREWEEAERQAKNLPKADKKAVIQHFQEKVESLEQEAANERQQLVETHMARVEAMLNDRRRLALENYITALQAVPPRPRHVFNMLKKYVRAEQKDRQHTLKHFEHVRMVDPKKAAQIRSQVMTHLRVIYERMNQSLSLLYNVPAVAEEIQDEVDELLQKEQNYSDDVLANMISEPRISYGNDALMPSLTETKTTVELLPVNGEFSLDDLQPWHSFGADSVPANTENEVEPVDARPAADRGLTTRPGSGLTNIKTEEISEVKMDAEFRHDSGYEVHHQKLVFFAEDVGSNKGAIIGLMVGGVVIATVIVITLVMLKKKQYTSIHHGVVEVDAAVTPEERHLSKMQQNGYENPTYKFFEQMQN

With `COc1cccc(CCCCCCCCN2CCCC(OC(=O)N(C)C)C2)c1` (racemic), in series [1], the Ki (usually a measure of affinity in units of concentration, obtained from inhibition or displacement) stood at 22.4 µM. Besides, the Activity result in [2] is on record as “Non-toxic”. The values for the IC50 in series [3] and in series [4] were 14.3 µM and 23.5 µM, respectively. Moreover, the Ratio IC50 in series [5] turned out to be 1.7.

Turning to `CCN(CCCCCCCCc1cccc(OC)c1)Cc1ccccc1OC`, the inhibition result in series [6] is “inactive”. The Activity entry in series [7] is recorded as “Toxic”; in series [8], “Toxic”; in [2], “Non-toxic”. For the same compound, the IC50 (commonly the concentration needed to halve the response being measured) in [9] was 5.65 µM; in series [3] it was 6.6 µM; in [4], 5 µM. The compound further registered a Ki in [1] of 24.4 µM. In [5], the Ratio IC50 amounted to 0.8.

On to `COc1cccc(CCCCCCCCNCc2ccccc2OC)c1`, for which the values for the Activity entry in [7] and in series [2] were “Toxic” and “Non-toxic”, respectively. In addition, in series [10], the cytotoxicity at 24 h was 46.3%. This compound displayed an inhibition constant Ki in [1] of 17 µM. The IC50 in series [3] worked out at 17.2 µM; in [4], 3.1 µM. Moreover, the Ratio IC50 in series [5] stood at 0.2.

In the case of `COc1cccc(CCCCCCCCN2CCCC(OC(C)=O)C2)c1` (racemic), in series [1], the Ki came to 19 µM. For the same compound, the Activity result in series [2] is listed as “Non-toxic”. In addition, the IC50 was found to be 16.1 µM in [3] and 19 µM in [4]. The Ratio IC50 in [5] is 1.2.

Take `CCN(CCCCCCCCc1cccc(OC)c1)Cc1ccccc1`: in series [1], the Ki came out at 10.4 µM. The Activity entry in series [2] is “Non-toxic”. Moreover, the IC50 amounted to 16.1 µM in series [3] and 8 µM in series [4]. Moreover, the Ratio IC50 in [5] was 0.5.

In the case of `COc1cccc(CCCCCCCCN2CCCC2)c1`, the Ki in series [11] is 22.4 µM. Further, the Activity result in [2] was “Non-toxic”. Further, the IC50 in series [3] came to 19.6 µM; in series [4] it was 16.4 µM. The Ratio IC50 in series [5] was 0.8.

Regarding `COc1cccc(CCCCCCCCN2CCC(OC(=O)N(C)C)C2)c1` (racemic), affinity in [1] was put at a Ki of 8.6 µM. The Activity result in [2] is “Non-toxic”. Besides, the IC50 is 13.7 µM in series [3] and 22.8 µM in [4]. Besides, the Ratio IC50 in series [5] worked out at 1.7.
